Where two headings read alike, the source gives them in different places. Marks after values point to notes of the source that are not given here.
How the values were obtained:
[1] = system: LoVo colorectal carcinoma xenografts; test: Treatment of LoVo human colorectal carcinoma xenografts with rhIGFBP-3 and irinotecan in balb/c nu/nu mice; assay type: in vivo; conditions: for effect after discontinuation of treatment: treatment discontinued day 21, monitored to day 40
Method: Female balb/c nu/nu mice (8 animals per group) received bilateral SC implants of LoVo colorectal carcinoma fragments which were allowed to grow to volumes of 100-150 mm3 prior to initiation of treatment. Upon establishment of the tumors, mice were treated with vehicle, rhIGFBP-3 (3, 10 or 30 mg/kg twice daily; SC x 21), irinotecan (10 or 20 mg/kg; IP; 4 doses at 4 day intervals) or a combination of agents. All treatment was discontinued on day 21 and mice were monitored for tumor response out to day 40. Net tumor growth was calculated at each time point.

[2] = rat, in vivo, iv
Method: (§1) The purpose of this study was to characterize the pharmacokinetic profile of rhIGFBP-3 following a single IV administration to rats. Adult male Sprague-Dawley rats (N=3/group) were administered doses of 0.8-160 mg/kg rhIGFBP-3 and blood specimens were collected for drug measurement.

[3] = system: MCF-7 human breast xenografts; test: Early treatment of MCF-7 human breast xenografts in CD1 nu/nu mice; assay type: in vivo
Method: Female CD1 nu/nu mice (12 animals per group) received SC implants of 5×10^6 MCF-7 cells. On the same day, mice received either vehicle or rhIGFBP-3 IP at a dose of 20 mg/kg. Mice were then treated with either vehicle or rhIGFBP-3 (20 mg/kg twice daily) for 10 weeks. Tumor volume was monitored beginning on week 2 and measured 3 times thereafter. […] In addition, the 3 tumors that did arise in the rhIGFBP-3 group were smaller than those in the control group.

[4] = Pharmacokinetics of rhIGFBP-3 after single IV administration to rats; conditions: for AUC / Cmax: mean ± SD
Method: as §1

[5] = system: MCF-7 human breast cancer cells; test: MCF-7 cell proliferation (MTT) with increasing rhIGFBP-3; assay type: cell-based; conditions: 5% FBS, 4 days, increasing concentrations
Method: FIG. 5(A) depicts the MCF-7 breast cancer cell proliferation as assayed by MTT in increasing concentrations of rhIGFBP-3.
The purpose of this study was to evaluate the effects of rhIGFBP-3 alone and in combination with radiation therapy in MCF-7 human breast cancer cells. MCF-7 cells were plated and cultured in 5% FBS for 4 days with increasing concentrations of rhIGFBP-3 in the media.

[6] = system: SKBR3/IGF-IR; test: Growth inhibition (MTT assay), SKBR3/IGF-IR; assay type: cell-based, human
[7] = system: SKBR3; test: Growth inhibition (MTT assay), SKBR3; assay type: cell-based, human
[8] = system: MCF-7 breast tumor xenografts; test: Treatment of established MCF-7 human breast tumors with rhIGFBP-3 and paclitaxel in balb/c nu/nu mice; assay type: in vivo
Method: Female balb/c nu/nu mice (8 animals per group) received bilateral SC implants of MCF-7 breast tumor fragments which were allowed to grow to volumes of 100-150 mm^3 prior to initiation of treatment. Upon establishment of the tumors, mice were treated with vehicle, rhIGFBP-3 (3, 10 or 30 mg/kg twice daily; SC×21), paclitaxel (10 or 20 mg/kg; IP; daily for 5 days) or a combination of agents. Tumors were measured twice weekly for 3 weeks and net tumor growth was calculated at each time point.

[9] = system: BT474; test: Growth inhibition (MTT assay), BT474; assay type: cell-based, human
[10] = system: MCF-7/HER2-18; test: Growth inhibition (MTT assay), MCF-7/HER2-18; assay type: cell-based, human
[11] = system: 3LL Lewis lung tumor; test: Treatment of 3LL murine Lewis lung tumors in C57BL6 mice; assay type: in vivo; conditions: for Mean Tumor Volume: day 23, mean ± SEM
Method: Female C57BL6 mice (8 animals per group) received bilateral SC implants of 3LL Lewis lung tumor fragments on day 0 and were treated subcutaneously with vehicle, rhIGFBP-3 (3 or 10 mg/kg twice daily×21), carboplatin (25 or 50 mg/kg; IP; single dose) or a combination of agents beginning on day 2.

[12] = system: BT474/HerR; test: Growth inhibition (MTT assay), BT474/HerR; assay type: cell-based, human
[13] = system: MCF-7 human breast cancer cells; conditions: for cell survival: 1 μg/mL, day 12
Method: In a second experiment, MCF-7 cells were exposed to increasing doses of irradiation and rhIGFBP-3 24 hours after plating. Cell survival was determined on day 12.

[14] = Pharmacokinetics of rhIGFBP-3 after single SC injection in rats; assay type: in vivo
Method: The purpose of this study was to characterize the pharmacokinetic profile of rhIGFBP-3 following a single SC administration to rats. Adult male rats (N=5/group) were administered doses of 3-30 mg/kg rhIGFBP-3 by bolus SC injection and blood specimens were collected for drug concentration analysis.

[15] = 20 mg/kg twice daily, after 10 weeks, mean ± SD
[16] = IV, 8.0 mg/kg vs 0.8 mg/kg (ten fold increase in dose)

CCc1c2c(nc3ccc(OC(=O)N4CCC(N5CCCCC5)CC4)cc13)-c1cc3c(c(=O)n1C2)COC(=O)[C@]3(O)CC [irinotecan, reference compound]
effect after discontinuation of treatment [1]: persisting effect

rhIGFBP-3: recombinant human insulin-like growth factor binding protein-3; preferred form from E. coli, native human sequence, lacks glycosylation
CL/W ([2]; 0.8 mg/kg): 7.07 ± 3.12 mL/min/kg | CL/W ([2]; 8 mg/kg): 13.4 ± 1.62 mL/min/kg | CL/W ([2]; 80 mg/kg): 6.33 ± 1.07 mL/min/kg | CL/W ([2]; 160 mg/kg): 9.65 ± 2.42 mL/min/kg | Number of Mice with Tumors ([3]; 20 mg/kg twice daily IP, after 10 weeks): 3/12 | MCF-7 tumor establishment compared to control ([3]; 20 mg/kg twice daily for 10 weeks): prevented MCF-7 tumor establishment | Mean Tumor Volume [3, 15]: 37.7 ± 42.0 mm^3 | Mean Tumor Weight [3, 15]: 0.046 ± 0.047 g | tumor volume compared to control, all mice in each group ([3]; end of treatment, p≦0.05): significantly lower | drug concentration in the serum ([4]; IV 0.8 mg/kg, four hours after administration, below quantitative limitation of the assay): < 300 ng/mL | AUC ([4]; IV, 0.8 mg/kg): 2172 ± 999 ng·h/mL | Cmax ([4]; IV, 0.8 mg/kg): 3067 ± 551 ng/mL | fold increase in AUC [4, 16]: 4.6 fold | fold increase in Cmax [4, 16]: 1.6 fold | AUC ([4]; IV, 8.0 mg/kg): 10057 ± 1248 ng·h/mL | Cmax ([4]; IV, 8.0 mg/kg): 4967 ± 1159 ng/mL | AUC ([4]; IV, 80 mg/kg): 215060 ± 39102 ng·h/mL | AUC ([4]; IV, 160 mg/kg): 287575 ± 64180 ng·h/mL | Cmax ([4]; IV, 160 mg/kg): 476667 ± 122202 ng/mL | drug serum concentrations 8 hours after dosing ([4]; IV, all dose groups other than 0.8 mg/kg): detectable | Cmax ([4]; IV): 360333 ± 62772 ng/mL | adverse clinical signs ([4]; single IV, any dose tested (0.8-160 mg/kg)): no adverse clinical signs | maximum growth suppression compared to control [5]: 50% | Growth Inhibition (MTT Assay) ([6]; 0.1-100 μg/ml): 12-40% | effect when combined with Herceptin, in words ([6]; combined with Herceptin): strong dose-dependent increase in Herceptin sensitivity | growth inhibition in words, single agent ([6]; single agent): marked dose-dependent growth inhibition | Growth Inhibition (MTT Assay) ([7]; 0.1-100 μg/ml): 20-40% | effect when combined with Herceptin, in words ([7]; combined with Herceptin): modest effect | net tumor growth, single agent ([8]; 3, 10 or 30 mg/kg twice daily SC x21): did not inhibit net tumor growth | effect in combination with paclitaxel ([8]; maximum effect at 10 mg/kg rhIGFBP-3 and 20 mg/kg paclitaxel): enhanced the effect of paclitaxel | Growth Inhibition (MTT Assay) ([9]; 0.1-100 μg/ml): 10-20% | effect when combined with Herceptin, in words ([9]; combined with Herceptin): did not significantly enhance Herceptin sensitivity | Growth Inhibition (MTT Assay) ([10]; 0.1-100 μg/ml): 15-55% | effect when combined with Herceptin, in words ([10]; combined with Herceptin, compared to rhIGFBP-3 alone): marginal dose-dependent increase in growth inhibition | growth inhibition in words, single agent ([10]; single agent): marked dose-dependent growth inhibition | Mean Tumor Volume ([11]; 3 mg/kg twice daily SC x21): 289.00 ± 42.97 mm^3 | reduction in tumor volume compared with carboplatin ([11]; 10 mg/kg twice daily): equal to that observed with the standard chemotherapeutic agent carboplatin | Mean Tumor Volume ([11]; 10 mg/kg twice daily SC x21): 149.73 ± 25.34* mm^3 | 3LL Lewis lung tumor growth, single agent ([11]; 3 or 10 mg/kg twice daily SC): dose-dependently inhibited | effect in combination with carboplatin ([11]; rhIGFBP-3 3 or 10 mg/kg twice daily + carboplatin 25 or 50 mg/kg IP): did not potentiate the effects of carboplatin | Growth Inhibition (MTT Assay) ([12]; 0.1-100 μg/ml): 10-26% | effect when combined with Herceptin, in words ([12]; combined with Herceptin): strong dose-dependent increase in Herceptin sensitivity | growth inhibition in words, single agent ([12]; single agent): less pronounced effect | net tumor growth, combination with irinotecan ([1]; 30 mg/kg rhIGFBP-3 + 10 mg/kg irinotecan): optimal results | inhibition of net tumor growth, single agent, vs 10 mg/kg irinotecan ([1]; 30 mg/kg twice daily SC x21): equally effective | effect after discontinuation of treatment [1]: persisting effect | cell survival ([13]; 0 Gy): ~65% | cell survival ([13]; 2 Gy): 37% | cell survival ([13]; 4 Gy): 21% | cell survival ([13]; 6 Gy): 5% | effect on radiation-induced cell death ([13]; all radiation doses): accentuated this effect on cell death at all doses | absorption following SC administration ([14]; SC): readily absorbed into the circulation | AUC ([14]; SC, 3 mg/kg): 5347 ± 909 ng·h/mL | CL/W ([14]; SC, 3 mg/kg): 9.63 ± 2.03 mL/min/kg | Cmax ([14]; SC, 3 mg/kg): 751 ± 120 ng/mL | AUC ([14]; SC, 10 mg/kg): 12999 ± 933 ng·h/mL | CL/W ([14]; SC, 10 mg/kg): 12.9 ± 1 mL/min/kg | Cmax ([14]; SC, 10 mg/kg): 2255 ± 217 ng/mL | increase in AUC compared to the 3 mg/kg group ([14]; SC, 10 mg/kg): approximately 2.5 fold | AUC ([14]; SC, 30 mg/kg): 54476 ± 7517 ng·h/mL | CL/W ([14]; SC, 30 mg/kg): 9.33 ± 1.42 mL/min/kg | Cmax ([14]; SC, 30 mg/kg): 6924 ± 1021 ng/mL | increase in AUC compared to the 3 mg/kg group ([14]; SC, 30 mg/kg): ~10 fold | signs of toxicity ([14]; single SC, 3-30 mg/kg): No signs of toxicity

N.N.O=C([O-])C1(C(=O)[O-])CCC1.[Pt+2] [Carboplatin, carboplatin, reference compound]
Mean Tumor Volume ([11]; 25 mg/kg IP single dose): 144.92 ± 31.36* mm^3 | Mean Tumor Volume ([11]; 50 mg/kg IP single dose): 187.36 ± 37.42* mm^3

Reference: patent US20040127411A1, “Methods for treating lung cancer using insulin-like growth factor binding protein-3” (Insmed, Inc., priority 2002, published 2004)
